For this test, the target named is T1, soluble guanylate cyclase (sGC) (Bos taurus, UniProt P16068).
T1 construct: The sGC which was employed had been isolated from bovine lung; from tissue; host or cells: bovine lung
T1 sequence (P16068 1-619): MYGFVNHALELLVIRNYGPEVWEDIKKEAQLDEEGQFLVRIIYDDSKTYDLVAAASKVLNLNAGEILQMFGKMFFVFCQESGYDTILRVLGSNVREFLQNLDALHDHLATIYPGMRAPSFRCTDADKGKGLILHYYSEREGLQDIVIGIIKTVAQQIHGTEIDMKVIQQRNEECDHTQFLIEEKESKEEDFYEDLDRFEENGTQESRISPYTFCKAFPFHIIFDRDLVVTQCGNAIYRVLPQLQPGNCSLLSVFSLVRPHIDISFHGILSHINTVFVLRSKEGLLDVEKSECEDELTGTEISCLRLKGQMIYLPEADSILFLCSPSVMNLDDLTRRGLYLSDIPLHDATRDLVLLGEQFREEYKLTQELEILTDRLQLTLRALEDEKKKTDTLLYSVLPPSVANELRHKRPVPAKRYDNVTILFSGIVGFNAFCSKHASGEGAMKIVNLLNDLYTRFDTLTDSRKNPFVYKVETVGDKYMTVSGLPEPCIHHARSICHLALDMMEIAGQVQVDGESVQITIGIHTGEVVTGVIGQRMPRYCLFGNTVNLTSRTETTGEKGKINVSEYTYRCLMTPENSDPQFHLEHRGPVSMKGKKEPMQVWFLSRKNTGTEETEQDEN
T1 sequence (P19687 1-691 partner): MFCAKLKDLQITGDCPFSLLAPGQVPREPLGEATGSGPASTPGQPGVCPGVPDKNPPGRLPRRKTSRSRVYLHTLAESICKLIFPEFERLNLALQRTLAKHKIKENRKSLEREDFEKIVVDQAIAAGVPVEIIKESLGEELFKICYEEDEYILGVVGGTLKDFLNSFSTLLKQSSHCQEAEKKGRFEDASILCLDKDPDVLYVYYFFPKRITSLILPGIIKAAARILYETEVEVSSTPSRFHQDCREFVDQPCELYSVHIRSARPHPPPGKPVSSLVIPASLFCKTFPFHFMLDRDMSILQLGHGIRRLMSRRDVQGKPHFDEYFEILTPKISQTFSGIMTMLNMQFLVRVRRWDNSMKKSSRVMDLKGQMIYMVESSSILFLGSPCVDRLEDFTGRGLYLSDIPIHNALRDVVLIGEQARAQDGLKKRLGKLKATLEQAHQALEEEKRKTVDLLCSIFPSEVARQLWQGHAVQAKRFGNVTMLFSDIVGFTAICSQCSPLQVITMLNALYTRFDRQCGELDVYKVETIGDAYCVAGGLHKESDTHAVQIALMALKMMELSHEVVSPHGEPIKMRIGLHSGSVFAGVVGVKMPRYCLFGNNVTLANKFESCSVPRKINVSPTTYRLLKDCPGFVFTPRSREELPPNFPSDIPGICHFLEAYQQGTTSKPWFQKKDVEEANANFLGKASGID
Put plainly: Activation of the soluble guanylate cyclase (cGMP enzyme immunoassay). Type of test: biochemical, bovine. As to conditions: n-fold stimulation of basal enzyme activity. The procedure: The activation of the soluble guanylate cyclase (sGC) which catalyzes the conversion of guanosine triphosphate (GTP) into cyclic guanosine monophosphate (cGMP) and pyrophosphate, by the compounds according to the invention was quantified with the aid of an enzyme immunoassay (EIA) from Amersham. For this purpose the substances to be tested were initially incubated with sGC in microtiter plates, and the amount of the cGMP formed was then determined.
The sGC which was employed had been isolated from bovine lung (see Methods in Enzymology, Volume 195, p. 377). The test solutions (100 μl per well) contained 50 mM triethanolamine (TEA) buffer (pH 7.5), 3 mM MgCl2, 3 mM reduced glutathione (GSH), 0.1 mM GTP, 1 mM 3-isobutyl-1-methylxanthine (IBMX), suitably diluted enzyme solution and the substance to be tested or, in the control experiments, the solvent. The substances to be tested were dissolved in dimethyl sulfoxide (DMSO) and the solution was diluted with DMSO/water, so that the final concentration (c) of the substance to be tested in the test solution had the value indicated in the table. The DMSO concentration in the test solution was 5% (v/v). The reaction was initiated by addition of the sGC. The reaction mixture was incubated at 37° C. for 15 to 20 minutes and then stopped by ice-cooling and addition of the stop reagent (50 mM EDTA, pH 8.0). An aliquot of 50 μl was taken and used for determining the cGMP content using the acetylation protocol of the Amersham cGMP-EIA kit. The absorption of the samples was measured at 450 nm (reference wavelength 620 nm) in a microtiter plate reader. The cGMP concentration was determined using a standard curve which was obtained under the same test conditions. The activation of sGC by a test substance is given as the n-fold stimulation of the basal enzyme activity which was found in the control experiments (using solvent instead of test substance) (calculated using the formula n-fold stimulation=[cGMP]test substance/[cGMP]control).

The compound `Cc1cc(NC(=O)c2cc(Cl)ccc2NS(=O)(=O)c2ccc(Cl)cc2)ccc1S(=O)(=O)N1CCOCC1` [Example 192, 5-Chloro-2-(4-chloro-phenylsulfonylamino)-N-(4-(morpholine-4-sulfonyl)-3-methyl-phenyl)-benzamide] displayed a n-fold stimulation (concentration c 10 μM) of 26.7.

Consider `O=C(Nc1ccc(S(=O)(=O)N2CCC3(CC2)OCCO3)cc1)c1cc(Cl)ccc1NS(=O)(=O)c1ccc(Cl)cc1` [Example 68, 5-Chloro-2-(4-chloro-phenylsulfonylamino)-N-(4-(1,4-dioxa-8-aza-spiro[4.5]decane-8-sulfonyl)-phenyl)-benzamide], for which the n-fold stimulation (concentration c 50 μM) is 12.1. On the same count and under the same terms, in the case of `COc1cc(NS(=O)(=O)c2ccc(Cl)cc2)c(C(=O)Nc2ccc(S(=O)(=O)N3CC[S+]([O-])CC3)cc2)cc1OC` [Example 176, 2-(4-Chloro-phenylsulfonylamino)-4,5-dimethoxy-N-(4-(1-oxo-thiomorpholine-4-sulfonyl)-phenyl)-benzamide] it was 13.9. The same measure, in the same setting: in the case of `COc1cc(NS(=O)(=O)c2ccc(Cl)cc2)c(C(=O)Nc2ccc(S(=O)(=O)N3CCC(O)CC3)cc2)cc1OC` [Example 89, 2-(4-Chloro-phenylsulfonylamino)-N-(4-(4-hydroxy-piperidine-1-sulfonyl)-phenyl)-4,5-dimethoxy-benzamide] it was 11.6; in that of `COc1cc(NS(=O)(=O)c2ccc(Cl)cc2)c(C(=O)Nc2ccc(S(=O)(=O)N3CCS(=O)(=O)CC3)cc2)cc1OC` [Example 175, 2-(4-Chloro-phenylsulfonylamino)-4,5-dimethoxy-N-(4-(1,1-dioxo-thiomorpholine-4-sulfonyl)-phenyl)-benzamide], 21.1.

For the compound `COc1cc(NS(=O)(=O)c2ccc(Cl)s2)c(C(=O)Nc2ccc(S(=O)(=O)N(C)Cc3cccnc3)cc2)cc1OC.Cl` [Example 191, 4,5-Dimethoxy-2-(5-chloro-thiophene-2-sulfonylamino)-N-(4-(N-methyl-N-(pyridin-3-yl-methyl)=aminosulfonyl)-phenyl)-benzamide hydrochloride], the n-fold stimulation (concentration c 10 μM) came out at 27.5. `O=C(Nc1ccc(S(=O)(=O)N2CCOCC2)cc1)c1sccc1NS(=O)(=O)c1ccc(Cl)cc1` [Example 79, 3-(4-Chloro-phenylsulfonylamino)-N-(4-(morpholine-4-sulfonyl)-phenyl)-thiophene-2-carboxamide] gave a n-fold stimulation (concentration c 50 μM) of 15.4. With `Cc1cc(NC(=O)c2cc(Cl)ccc2NS(=O)(=O)c2ccc(Cl)cc2)ccc1S(=O)(=O)N1CCCCC1` [Example 195, 5-Chloro-2-(4-chloro-phenylsulfonylamino)-N-(4-(piperidine-1-sulfonyl)-3-methyl-phenyl)-benzamide], where the note is “concentration c 10 μM”, the n-fold stimulation is recorded as 16.2. Under “concentration c 50 μM”, `CN1CCN(S(=O)(=O)c2ccc(NC(=O)c3cc(Cl)ccc3NS(=O)(=O)c3ccc(Cl)cc3)cc2)CC1` [Example 64, 5-Chloro-2-(4-chloro-phenylsulfonylamino)-N-(4-(4-methyl-piperazine-1-sulfonyl)-phenyl)-benzamide] displayed a n-fold stimulation of 23.9. As for `O=C(Nc1ccc(S(=O)(=O)N2CCSCC2)cc1)c1cc(Cl)ccc1NS(=O)(=O)c1ccc(Cl)cc1` [Example 63, 5-Chloro-2-(4-chloro-phenylsulfonylamino)-N-(4-(thiomorpholine-4-sulfonyl)-phenyl)-benzamide], for the setting “concentration c 50 μM”, the n-fold stimulation was determined as 33.9. The same measure, in the same setting: then `CN1CCN(S(=O)(=O)c2ccc(NC(=O)c3cc(Cl)ccc3NS(=O)(=O)c3ccc(Cl)c(Cl)c3)cc2)CC1` [Example 71, 5-Chloro-2-(3,4-dichloro-phenylsulfonylamino)-N-(4-(b4-methyl-piperazine-1-sulfonyl)-phenyl)-benzamide], with 13.4; and `O=C(Nc1ccc(S(=O)(=O)N2CCOCC2)cc1)c1cc(Cl)ccc1NS(=O)(=O)c1cccnc1` [Example 132, 5-Chloro-N-(4-(morpholine-4-sulfonyl)-phenyl)-2-(pyridine-3-sulfonylamino)-benzamide], with 9.9; and `COCCNS(=O)(=O)c1ccc(NC(=O)c2cc(Cl)ccc2NS(=O)(=O)c2ccc(Cl)cc2)cc1` [Example 77, 5-Chloro-2-(4-chloro-phenylsulfonylamino)-N-(4-(2-methoxy-ethylsulfamoyl)-phenyl)-benzamide], with 5.9. The same measure, in the same setting: in the case of `COc1ccc(S(=O)(=O)Nc2ccc(Cl)cc2C(=O)Nc2ccc(S(=O)(=O)N3CCOCC3)cc2)cc1Cl` [Example 148, 5-Chloro-2-(3-chloro-4-methoxy-phenylsulfonylamino)-N-(4-(morpholine-4-sulfonyl)-phenyl)-benzamide] it was 15.5; in that of `CCN(CC)S(=O)(=O)c1ccc(NC(=O)c2cc(Cl)ccc2NS(=O)(=O)c2ccc(Cl)cc2)cc1` [Example 75, 5-Chloro-2-(4-chloro-phenylsulfonylamino)-N-(4-diethylsulfamoyl-phenyl)-benzamide], 5.1. In turn, `COc1cc(NS(=O)(=O)c2c(C)noc2C)c(C(=O)Nc2ccc(S(=O)(=O)N(C)Cc3cccnc3)cc2)cc1OC` [Example 196, 4,5-Dimethoxy-2-(3,5-dimethyl-isoxazole-4-sulfonylamino)-N-(4-(N-methyl-N-(pyridin-3-yl-methyl)-aminosulfonyl)-phenyl)-benzamide] yielded a n-fold stimulation (concentration c 10 μM) of 21.9. For `Cc1cc(C)c(S(=O)(=O)Nc2ccc(Cl)cc2C(=O)Nc2ccc(S(=O)(=O)N3CCOCC3)cc2)c(C)c1` [Example 150, 5-Chloro-N-(4-(morpholine-4-sulfonyl)-phenyl)-2-(2,4,6-trimethyl-phenylsulfonylamino)-benzamide], the n-fold stimulation (concentration c 50 μM) was 15.3. In the case of `O=C(Nc1ccc(S(=O)(=O)c2ccccc2)cc1)c1cc(Cl)ccc1NS(=O)(=O)c1ccc(Cl)s1` [Example 225], the n-fold stimulation (concentration c 10 μM) is 13.4. For the setting “concentration c 50 μM”, `O=C(Nc1ccc(S(=O)(=O)N2CCOCC2)cc1)c1cc(Cl)ccc1NS(=O)(=O)c1cc(C(F)(F)F)cc(C(F)(F)F)c1` [Example 139, 2-(3,5-Bis-trifluoromethyl-phenylsulfonylamino)-5-chloro-N-(4-(morpholine-4-sulfonyl)-phenyl)-benzamide] came in with a n-fold stimulation of 21.9. Same read-out and setting: in the case of `O=C(Nc1ccc(S(=O)(=O)N2CCC(O)CC2)cc1)c1cc(Cl)ccc1NS(=O)(=O)c1ccc(Cl)cc1` [Example 67, 5-Chloro-2-(4-chloro-phenylsulfonylamino)-N-(4-(4-hydroxy-piperidine-1-sulfonyl)-phenyl)-benzamide] it was 29.6; in that of `O=C(Nc1ccc(S(=O)(=O)N2CCOCC2)cc1)c1cc(Cl)ccc1NS(=O)(=O)c1ccc(C(F)(F)F)cc1` [Example 137, 5-Chtoro-N-(4-(morpholine-4-sulfonyl)-phenyl)-2-(4-trifluoromethyl-phenylsulfonylamino)-benzamide], 4.6.

Source of the values: patent publication US8541410B2, “Sulfur substituted sulfonylaminocarboxylic acid N-arylamides, their preparation, their use and pharmaceutical preparations comprising them” (Sanofi-aventis Deutschland GmbH, priority 1998, dated 2013).
